From patent US20160318866A1, “SUBSTITUTED BIPIPERIDINYL DERIVATIVES” (Bayer Pharma Aktiengesellschaft, priority 2013, published 2016)

Assays:
adult female Wistar rats = experiment: Radiotelemetric measurement of blood pressure and heart rate of conscious rats; assay type: in vivo, rat; conditions: 10 mg/kg, oral, telemetry over 24 hours
Description: A commercially available telemetry system from Data Sciences International DSI, USA, was employed for the measurements on conscious rats described below. The system consists of 3 main components: (1) implantable transmitters (Physiotel® telemetry transmitter), (2) receivers (Physiotel® receiver), which are linked via a multiplexer (DSI Data Exchange Matrix) to a (3) data acquisition computer. The telemetry system makes it possible to continuously record blood pressure, heart rate and body motion of conscious animals in their usual habitat.
The studies were conducted on adult female Wistar rats with a body weight of >200 g. After transmitter implantation, the experimental animals were housed singly in type III Makrolon® cages. They had free access to standard feed and water. The day/night rhythm in the test laboratory was set by changing the illumination of the room.
The telemetry transmitters used (PA-C40, DSI) were surgically implanted under aseptic conditions in the experimental animals at least 14 days before the first experimental use.
For the implantation, the fasted animals were anaesthetized with isoflurane (IsoFlo®, Abbott, initiation 5%, maintenance 2%) and shaved and disinfected over a large area of their abdomens. […]
Each of the instrumented rats living in the system was assigned a separate receiving antenna (RPC-1 Receiver, DSI). […] The signals emitted were detected online by a data acquisition system (Dataquest™ A.R.T. for Windows, DSI) and processed accordingly.
In the standard procedure, the following were measured for 10-second periods in each case: (1) systolic blood pressure (SBP), (2) diastolic blood pressure (DBP), (3) mean arterial pressure (MAP), (4) heart rate (HR) and (5) activity (ACT). These parameters were measured over 24 hours after administration.
The acquisition of measurements was repeated under computer control at 5-minute intervals. The source data obtained as absolute values were corrected in the diagram with the currently measured barometric pressure (Ambient Pressure Reference Monitor, APR-1, DSI). […]

[1] = test system: diabetic (ZDFfa/fa) and healthy rats (Wistar); experiment: Assay of perfusion-enhancing substances (microcirculation), laser doppler at the paw; assay type: in vivo, rat; conditions: single oral dose
Description: In diabetic (ZDFfa/fa) and healthy rats (Wistar), a laser doppler probe was fastened under anaesthesia conditions (isoflurane anaesthesia) at the sole of the paw for measuring cutaneous microcirculation. The test animals were once treated orally with the test substances. During the experiment, microperfusion and temperature of the lower extremities were documented continuously. Here, a temperature-sensitive laser doppler probe (Periflux, O2C) was fastened with adhesive to the paws of the animals, allowing the measurement of microperfusion and skin temperature. The microcirculation measurement values were measured on both paws 30 min after oral administration of the test substance. […] Also stated is the MED for the significant increase of skin temperature (ttest).

COC[C@@]1(C)CCCN2CCc3c(oc4ccccc34)[C@@H]21 [ORM-12741, reference compound]
blood pressure (adult female Wistar rats): additional reduction in blood pressure
factor by which microcirculation is improved at this dose compared to placebo ([1]; at the MED, 30 min after administration): 1.9 x
MED [mg/kg] skin temperature ([1]; minimum effective dose for significant increase of skin temperature (ttest)): 0.01 mg/kg
MED [mg/kg] microcirculation ([1]; minimum effective dose for significantly improved microcirculation vs placebo, 30 min after administration): 0.1 mg/kg
